The test system of one assay is differentiated L6 cells. In words: activity of glucose uptake (2-deoxy-D-[U-14C] glucose) in differentiated L6 cells. The conditions noted are these: compound at 1 μmol/L to 10 μmol/L for 24 hours, FIG. 5. The assay is classed as cell-based, rat. The method, then: A tissue into which the largest amount of glucose can be incorporated in a living body is muscle. In this example and the following examples, a rat myoblast L6 was used to detect an activity of glucose uptake in vitro. L6 cells (ATCC, CRL-1458) were maintained in a Dulbecco's modified Eagle's medium (GIBCO BRL, USA, 11995-065) supplemented with 10% fetal bovine serum (JRH BIOSCIENCES, Cat. No. 12303-500M), and cultured in a humid atmosphere containing 5% CO2 at 37° C. When the L6 cells were confluent, the medium was changed to a Dulbecco's modified Eagle's medium supplemented with 2% horse serum (GIBCO, Cat. No. 16050), and further cultured for 5 days to perform an induction of differentiation.
The cells overexpressing human PGC-1β or human PGC-1α, prepared in accordance with the procedures described in Example 4, were used to measure an activity of glucose uptake. After 48 hours from the infection, the cells were rinsed with 1 mL of a KRP buffer ([…], 4.7 mmol/L KCl, 1.25 mmol/L CaCl2.2H2O, 1.25 mmol/L MgSO4.7H2O, and 5 mmol/L Na2HPO4.12H2O), and further cultured in 500 μL of KRP for 1 hour. […] Each lysate was mixed with 2 mL of a liquid scintillator (AQUASOL 2, PERKINELMER, Cat. No. 6NE9529), and an amount of radiolabeled compound (radioactivity, CPM) incorporated into the cells was measured using a liquid scintillation counter (PACKARD, B2500TR). […]

A further assay relates to human PGC-1β promoter. As to the kind of experiment: human PGC-1β promoter luciferase reporter (phPGC1β (1.0) Luc) in L6 cells. The conditions noted are these: final concentration of 1 μmol/L to 10 μmol/L, 24 hours. The assay is classed as cell-based. The method, then: phPGC1β (1.0) Luc plasmid constructed in Example 9, in accordance with the following procedures. L6 cells were cultivated in a tissue culture dish having a diameter of 10 cm to become 80% confluent. The cells were cotransfected with 5 μg of the phPGC1β (1.0) Luc plasmid and 1 μg of plasmid pCH110 (Pharmacia Biotech) using a regent for transfection (FuGENE™ T6, Roche, Cat. No. 1815091). In this connection, the plasmid pCH110 containing a β-galactosidase gene regulated by a β-actin promoter was used to standardize an efficiency of transfection. After 24 hours from the transfection, the cells were transferred to a 96-well tissue culture dish, and further cultured for 6 hours. Since it was reported that the combination of forskolin and dexamethasone induced an expression of endogenous PGC-1 in hepatocytes [J. Biol. Chem., 278: 30843 (2003)], the cells were treated with 10 μmol/L (final concentration) forskolin and 1 μmol/L dexamethasone [solvent=dimethyl sulfoxide (DMSO)] for 24 hours. After the treatment, the cells were lysed with a solution for cell lysis (LCβ; Toyo Ink, Japan), and a luciferase activity therein was measured using a PicaGene luminescence kit (Toyo Ink, Japan, 309-04321). In this connection, the activity was measured 3 times per group, and each experiment was repeated at least twice, to confirm the reproducibility. […]
(Reporter assays use an easily measured gene product as a stand-in for the process of interest.)

Each structure is given as a SMILES string. Bounds are passed on as bounds.

Data on one molecule can be found in patent US20080070249A1, “Novel Activating Agent of Glucose Uptake and a Screening Method Therefor” (ASTELLAS PHARMA INC., priority 2005, published 2008).

Consider `Nc1cccc(-c2nc3cc(C(=O)c4ccccc4)ccc3[nH]2)c1` [compound A, 2-(3-aminophenyl)-5-benzoyl-(1H)-benzimidazole], for which the “activity of glucose uptake in muscle cells” value in the assay on differentiated L6 cells is reported as “significantly activated glucose uptake”. The “activating activity of the human PGC-1β promoter (reporter luciferase activity) in comparison with absence of the compound” value in the assay on human PGC-1β promoter is given as at least 2 times.
